Source: patent publication US12605358B2, “Composition for preventing or treating nervous system diseases comprising compound that inhibits mTOR signaling pathway as active ingredient” (ALIAD BIOPHARMA, priority 2021, dated 2026)

System: primary cultured hippocampal neurons
Assay: LC3-eGFP puncta formation assay (autophagy promotion)
Type: cell-based, rat
Conditions: rapamycin and HN-1703 at 0.1 μM and 0.5 μM respectively, 12 hours; FIG. 3A
Description: Primary neurons culture was performed from the hippocampus of rat (SD, Orient Bio) embryonic 16-day (E16) embryos. The left and right hemispheres of the extracted brain were separated using sterile tweezers under a dissecting microscope, the meninges were peeled off, the hippocampus was cut with No. 55 tweezers, and neural progenitor cells were mechanically dissolved in a Ca^2+/Mg^2+-free HBSS (Invitrogen) solution by pipetting with a pasteur pipette (Falcon, 354647). Undissolved tissues or vascular cells were settled, and then a supernatant was taken to measure the cell number and the isolated cells were seeded at 19,000 cells/cm^2 in a 35 mm culture dish coated with poly-L-ornithine (sigma, P3655) and fibronectin (sigma, F4759). The cells were cultured using a serum-free N2 medium (growth medium) added with 10 ng/mL bFGF (Invitrogen) in a 5% CO2 incubator, and the culture medium was replaced after 6 hours and after 24 hours. After 2 days, when the cells proliferated twice or more, subculture was performed.
After 3 days of the primary neural progenitor cell culture, a process of subculturing with 0.05% trypsin was repeated twice, and DNA electroporation or transfection was performed before seeding. […]
The number of cell nuclei labeled with DAPI and the number of cells expressing green fluorescence by overlapping LC3-eGFP expression and DAPI labeling were measured. The number of eGFP-LC3 puncta was measured per cell, and the signal intensity of puncta was measured using a confocal laser microscope program. […]
The autophagy promoting effect of HN-1703 in neurons differentiated by culturing hippocampal neural progenitor cells from rat embryos (E16) was evaluated by performing an LC3-eGFP puncta formation assay. The neural progenitor cells into which an LC3-eGFP recombinant gene was introduced by electroporation were differentiated into neurons, treated with rapamycin and HN-1703 at concentrations of 0.1 μM and 0.5 μM for 12 hours, respectively, and the puncta of LC3-GFP were scanned with a confocal laser microscope (Zeiss, LSM800) to measure the fluorescence intensity of LC3-eGFP and the number of puncta, and the results were illustrated in FIG. 3. Specifically, FIG. 3A illustrates confocal scanning micrographs of LC3-eGFP puncta formation after treated primary cultured hippocampal neurons overexpressing an LC3-eGFP fusion protein with HN-1703, and quantifying the number and fluorescence intensity of LC3-eGFP puncta per cell, and FIG. 3B illustrates a result of LC3-II turnover analysis.

## CO[C@H]1C[C@@H]2CC[C@@H](C)[C@@](O)(O2)C(=O)C(=O)N2CCCC[C@H]2C(=O)O[C@H]([C@H](C)C[C@@H]2CC[C@@H](O)[C@H](OC)C2)CC(=O)[C@H](C)/C=C(\C)[C@@H](O)[C@@H](OC)C(=O)[C@H](C)C[C@H](C)/C=C/C=C/C=C/1C [rapamycin, reference compound]
  increase of the number of LC3-eGFP puncta compared to a control group: 49%
  increase of the signal intensity of LC3-eGFP puncta compared to the control group: 15%
